Assay [1] has as its system Chk1. The experiment in a line: Chk1 serine 296 phosphorylation, Western blot in HT29 cells. The assay is classed as cell-based, human. The settings on record: HT29 cells, 20 μM gemcitabine for two hours, 22 additional hours. As for the experimental part: Phosphorylation at this site is not inhibited by Wortinannin, which inhibits Atm and Atr. Therefore the phosphorylation of serine 296 is distinct from phosphorylation at serines 317 and 345 described in Example 12. […] Therefore, this approach may be used to monitor Chk1 activity in tumors in response to Chk1 activators. Further, this approach may be used to measure inhibition of Chk1 activation by Chk1 inhibitors.
Thus, HT 29 cells were treated with 20 μM gemcitabine for two hours. The gemcitabine was washed out of the cell growth media and cells were incubated for 22 additional hours. Protein lysates were prepared and separated by an SDS-polyacrylamide gel electrophoresis. Proteins were transferred to polyvinylidene fluoride (PVDF) membranes and probed with antisera (Cell Signalling) specific for phosphorlyated serine 296 (Cell Signalling). […] Further, HT29 cells treated with selective Chk1 inhibitors for 15 minutes show no serine 296 phosphorylation.

Assay [2] deals with HT29 tumors. The experiment in a line: H3-P mitotic index assay in HT29 tumors. The assay is classed as in vivo, mice. The settings on record: for mitotic index (H3-P): 100 mg/kg gemcitabine i.p. As for the experimental part: Chem. 271:13197-201. 1996; Goto et al., J Biol Chem. 274:25543-9, 1999). The assay protocol was as follows. Tumors from rodents treated or untreated with Chk1 activator (in the present study, chemotherapy agent) and/or Chk1 inhibitor, were excised and paraffin embedded. The tumors are cut into 6 micron thick slices and mounted on glass slides. […] The slides are then heated to 95° C. in 10 mM sodium citrate for 10 minutes followed by a 20 minute cooling step. The slides are blocked for 30 minutes with Block buffer (20% normal human serum and 2% bovine serum albumin in phosphate buffered saline containing 0.05% Triton X-100 (PBST)). The anti-phospho histone H3 antibody (Upstate Biotech, Cat. #06-570) is diluted 1:200 in the Block buffer and incubated with the slides for one hour. The slides are washed 3 times 5 minutes in PBST. The secondary antibody, donkey anti-rabbit rhodamine (Jackson, cat #711-295-152) was added for 30 minutes. The slides were then washed twice in PBST and […] of […] DAPI (Sigma) in PBS is added and allowed to stain for 30 minutes. The slides were then washed two more times in PBST and mounted with Vectashield (Vector, cat # H-1400). Slides were viewed using fluorescence microscopy. The percentage of cells stained with H3-P antibody relative to total (DAPI stained) cells were quantified using Metamorph software (Universal Imaging Corporation, Version 4.6). […] Tumors from these animals were resected, paraffin embedded and stained with an antibody to H3-P followed by a counter-stained with DAPI. The percentage of mitotic cells (positive to H3-P) was quantified at each time point. […] To determine whether checkpoint abrogation by selective Chk1 inhibitor was dose-dependent, HT29 tumor-bearing mice were pretreated with gemcitabine and 32 hours later dosed with increasing doses of selective Chk1 inhibitor. After 18 hours, tumors were harvested and stained for H3-P as described above. […] The response is saturated at 400 mg/kg.

The subject of assay [3] is HT29 tumors. The experiment in a line: Rb-Pser795 S phase marker staining of HT29 tumors. The assay is classed as in vivo, mice. The settings on record: 100 mg/kg gemcitabine i.p., 1 to 72 hr. From the text:
To confirm that low H3-P staining corresponds to S phase arrest, tumors were also stained with an S phase marker, phosphorylated Rb-Pser795. Tumor slices taken in the experiment above were stained with the Rb-Pser795 antibody (Cell Signaling Cat# 9301S) and the number of positive staining cells quantified.

Assay [4] deals with Chk1. The experiment in a line: Chk1 serine 317 and 345 phosphorylation, Western blot in HT29 cells. The format is cell-based, human. The settings on record: 20 μM gemcitabine for two hours, 22 additional hours. An excerpt:
To determine whether an agent is a Chk1 activator, the phosphorylation state of Chk1 can be measured using phospho-specific antibodies to specific phosphorylation sites on Chk1. […] Liu, Q., et al., (2000) Genes Dev. 14, 1448-1459; Zhao, H., et al., (2001) Mol. Cell. Biol. 21, 4129-4139; Lopez-Girona, A., et al., (2001) Proc. Natl. Acad. Sci. U.S.A. 98, 11289-11294; Guo, Z., et al., (2000). Genes Dev. 14, 2745-2756; Gatei, M., et al., (2003) J. Biol. Chem. 278, 14806-14811; Ng C P, et al., J Biol Chem. 2004 Mar. 5; 279(10):8808-19; Wang Y, et al., Natl Acad Sci USA. 2003 Dec. 23; 100(26):15387-92; Stojic L, et al., Genes Dev. 2004 Jun. 1; 18(11):1331-44. These serine sites are phosphorylated by upstream checkpoint kinases, Atm and Atr. Liu, Q., et al., S. J. (2000) Genes Dev. 14, 1448-1459; Zhao, H., et al. (2001) Mol. Cell. Biol. 21, 4129-4139).
The phosphorylation of these sites in response to a candidate Chk1 activator can be monitored by Western blot or immunohistochemistry of tumor cells. […] HT29 cells were treated with 20 μM gemcitabine for two hours. The gemcitabine was washed out of the cell growth media and cells were incubated for 22 additional hours. Protein lysates were prepared and separated by an SDS-polyacrylamide gel electrophoresis. […]

The values below come from US20070185013A1, “Use of chk1 inhibitors to control cell proliferation” (ICOS CORPORATION, priority 2003, published 2007).

“Also recorded” adds a separate entry of the source.

As for `Nc1ccn([C@@H]2O[C@H](CO)[C@@H](O)C2(F)F)c(=O)n1` [gemcitabine], the “phosphorylation of Chk1 serine 296” value in the assay on Chk1 [1] was “stimulated; also recorded: results in the phosphorylation of serine 296”. Further, the “mitotic cells (H3-P positive)” value in the assay on HT29 tumors [2] (100 mg/kg gemcitabine for 48 hours alone) is “approximately 4%”. For the same compound, the “mitotic index (H3-P)” value with HT29 tumors [2] (1-6 hr time points) is recorded as “approximately 3”; with HT29 tumors [2] (between 12 and 24 hr after administration), “approximately 1.5”. The “time of lowest H3-P staining” value with HT29 tumors [2] (HT29, treated with gemcitabine) was determined as 48 h. Also, in the assay on HT29 tumors [2] (HT29 tumors, from H3-P and Rb-Pser795 staining), the “time of optimal S phase arrest post-gemcitabine treatment” value lay in the range of 24 to 48 h. Also, in the assay with HT29 tumors [3], the Rb-P staining cells result is “more Rb-P staining cells at, 24, 48 and 72 hours than at earlier timepoints”. Moreover, in the assay on Chk1 [4], the “phosphorylation of Chk1 serines 317 and 345” value was “results in the phosphorylation of both serines 317 and 345”.
